{"source": "patent US20240327463A1", "about": "“ANTIBACTERIAL PRODUCTS” (priority 2017, published 2024)", "note": "Bridge positions count the residues as written; N and C are the ends. Square brackets hold non-standard residues; d marks the D form. Peptide text beside a SMILES is read from it. dNMeF = CN[C@H](Cc1ccccc1)C(=O)O; Nva = CCC[C@H](N)C(=O)O"}
{"system": "MRSA ATCC 33591", "conditions": "ATCC 33591", "protocol": "For MIC testing all peptides were dissolved in DMSO (according to the method of L. L. Ling, et al., Nature 2015, 517, 455-459). Bacteria were grown on Mueller Hinton broth (oxoid). All incubations were at 37° C. Dilutions were carried out using Mueller Hinton. 100 μl of autoclaved Mueller Hinton broth was added to wells 2-12 on a 96-well plate. 200 μl of the peptide was added to well one at a concentration of 512 μg/ml. 100 μl of peptide in well one was taken up and pipetted into well two. The mixture was then mixed via pipetting before 100 μl was taken up and pipetted into well three. This process was repeated up to well 11. […] This was repeated three times. The 96-well plates were then incubated for 24 hours. The MIC was determined to be the lowest concentration at which there was no growth visible.", "units": {"MIC (MRSA)": "µg/mL", "MIC (MRSA*)": "µg/mL"}}
{"smiles": "CC[C@@H](C)[C@@H](NC(=O)[C@@H](CCCNC(=N)N)NC(=O)[C@H](CO)NC(=O)[C@@H](NC(=O)[C@@H](Cc1ccccc1)NC)[C@@H](C)CC)C(=O)N[C@H](C(=O)N[C@@H](CO)C(=O)N[C@H]1C(=O)N[C@@H](C)C(=O)N[C@@H](C)C(=O)N[C@@H]([C@@H](C)CC)C(=O)O[C@H]1C)[C@@H](C)CC", "note": "[Compound 53, D-Arg4-Ala10-teixobactin]", "MIC (MRSA)": 4}
{"smiles": "CCC[C@@H]1NC(=O)[C@H](CCCNC(=N)N)NC(=O)[C@H](NC(=O)[C@H](CO)NC(=O)[C@@H](NC(=O)[C@H](NC(=O)[C@@H](CCC(N)=O)NC(=O)[C@H](CO)NC(=O)[C@@H](NC(=O)[C@@H](Cc2ccccc2)NC)[C@@H](C)CC)[C@H](C)CC)[C@@H](C)CC)[C@H](C)OC(=O)[C@H]([C@@H](C)CC)NC1=O", "note": "[Compound 47, Arg9-Nva10-teixobactin] (H-[dNMeF]IS[dQ][dI]IS[dT]R[Nva]I; ester 8-C)", "MIC (MRSA)": 0.5}
{"smiles": "CC[C@@H](C)[C@@H](NC(=O)[C@@H](CCC(N)=O)NC(=O)[C@H](CO)NC(=O)[C@@H](NC(=O)[C@@H](C)NC(C)=O)[C@@H](C)CC)C(=O)N[C@H](C(=O)N[C@@H](CO)C(=O)N[C@H]1C(=O)N[C@@H](C)C(=O)N[C@@H](CCCNC(=N)N)C(=O)N[C@@H]([C@@H](C)CC)C(=O)O[C@H]1C)[C@@H](C)CC", "note": "[Compound 7]", "MIC (MRSA*)": ">128"}
{"smiles": "CCC[C@@H]1NC(=O)[C@H](C)NC(=O)[C@H](NC(=O)[C@H](CO)NC(=O)[C@@H](NC(=O)[C@H](NC(=O)[C@@H](CCCNC(=N)N)NC(=O)[C@H](CO)NC(=O)[C@@H](NC(=O)[C@@H](Cc2ccccc2)NC)[C@@H](C)CC)[C@H](C)CC)[C@@H](C)CC)[C@H](C)OC(=O)[C@H]([C@@H](C)CC)NC1=O", "note": "[Compound 46, D-Arg4-Nva10-teixobactin]", "MIC (MRSA)": 0.25}
{"smiles": "CC[C@@H](C)[C@@H](NC(=O)[C@@H](CCC(N)=O)NC(=O)[C@H](CO)NC(=O)[C@@H](NC(=O)[C@@H](Cc1ccccc1)NC)[C@@H](C)CC)C(=O)N[C@H](C(=O)N[C@@H](CO)C(=O)N[C@H]1C(=O)N[C@@H](C)C(=O)NCC(=O)N[C@@H]([C@@H](C)CC)C(=O)O[C@H]1C)[C@@H](C)CC", "note": "[Compound 16, Gly10-teixobactin]", "MIC (MRSA*)": 2}
{"smiles": "CCC[C@@H]1NC(=O)[C@H](CCCNC(=N)N)NC(=O)[C@H](NC(=O)[C@H](CO)NC(=O)[C@@H](NC(=O)[C@H](NC(=O)[C@@H](CCCNC(=N)N)NC(=O)[C@H](CO)NC(=O)[C@@H](NC(=O)[C@@H](Cc2ccccc2)NC)[C@@H](C)CC)[C@H](C)CC)[C@@H](C)CC)[C@H](C)OC(=O)[C@H]([C@@H](C)CC)NC1=O", "note": "[Compound 50, D-Arg4-Arg9-Nva10-teixobactin] (H-[dNMeF]IS[dR][dI]IS[dT]R[Nva]I; ester 8-C)", "MIC (MRSA)": 0.5}
{"smiles": "CC[C@@H](C)[C@@H](NC(=O)[C@@H](CCC(N)=O)NC(=O)[C@H](CO)NC(=O)[C@@H](NC(=O)[C@@H](Cc1ccccc1)NC)[C@@H](C)CC)C(=O)N[C@H](C(=O)N[C@@H](CO)C(=O)N[C@H]1C(=O)N[C@@H](C)C(=O)N[C@@H](C2CCCCC2)C(=O)N[C@@H]([C@@H](C)CC)C(=O)O[C@H]1C)[C@@H](C)CC", "note": "[Compound 36, Chg10-teixobactin]", "MIC (MRSA)": 0.25}
{"smiles": "CC[C@@H](C)[C@@H](NC(=O)[C@@H](CCCNC(=N)N)NC(=O)[C@H](CO)NC(=O)[C@@H](NC(=O)[C@@H](Cc1ccccc1)NC)[C@@H](C)CC)C(=O)N[C@H](C(=O)N[C@@H](CO)C(=O)N[C@H]1C(=O)N[C@@H](C)C(=O)N[C@@H](Cc2ccccc2)C(=O)N[C@@H]([C@@H](C)CC)C(=O)O[C@H]1C)[C@@H](C)CC", "note": "[Compound 52, D-Arg4-Phe10-teixobactin]", "MIC (MRSA)": 2}
